Test results as given in patent US20200216432A1, “SULFONAMIDE DERIVATIVES AS STAT3 INHIBITORS FOR THE TREATMENT OF PROLIFERATIVE DISEASES” (King's College London, priority 2017, published 2020).
Entries after “also recorded” stand apart in the source; their conditions may differ.

Columns and labels:
[1] = system: A4 (STAT3-null) cancer cell line; assay: MTT cell viability assay, A4; type: cell-based
Description: (§1) MTT Cell viability assay with both MDA-MB-231 breast (STAT3-dependent) and A4 (STAT3-null) cancer cell lines.
(§2) After observing significant STAT3 dimerisation inhibitory activity in the preliminary FP assay, the target ligand and related fragments were progressed to an MTT cytotoxicity assay to evaluate in a STAT3-dependent tumour cell line (MDA MB 231, breast cancer) and a STAT3 null A4 cell line. It was anticipated that the compounds would show selective toxicity towards the STAT3-dependent MDA MB 231 cell line and would have lost activity in the STAT3 null A4 cell line if the mechanism of action was STAT3-mediated.
(§3) For each cell line, a total of 10,000 cells were seeded for 24 hours before addition of the inhibitors. The cells were grown in normal cell culture conditions at 37° C. under a 5% CO2 humidified atmosphere using an appropriate medium. The cell count was adjusted to 10^5 cells/ml, and 5,000-20,000 cells were added per well depending on the cell line. The cells were then incubated for 24 hours, and 1 μl aliquots of the inhibitors were added to the wells in triplicate. […] Absorbance was quantified by spectrophotometry at A=570 nm (Envision™ Plate Reader, PerkinElmer™, USA). IC50 values were calculated by a dose-response analysis using the Prism GraphPad Prism® software package.

[2] = system: STAT3 and STAT3-dependent genes; assay: RT-PCR expression of STAT3 and STAT3-dependent genes in LPS-stimulated MDA-MB-231 cells; type: cell-based, human; settings: 25 μM, 8 hours, MDA-MB-231 stimulated with 500 μg/mL LPS
Procedure: Effect of Compounds of the Invention on Expression of STAT3 and STAT3-Dependent Genes.
To probe the STAT3-specific cytotoxicity of the mature ligands, the mRNA expression profile of STAT3 and some STAT3 target genes (i.e., bcl-2, cyclin D1, and fascin) were compared to the reference gene GAPDH using a RT-PCR assay. Initially, the MDA-MB-231 cells were stimulated with 500 μg/mL LPS for 24 hours at 37° C. Following this, the compounds were added at 25 μM to the cells and incubated for another 8 hours at 37° C. Finally, PCR was used to determine changes in the gene expression profiles between stimulated-untreated and stimulated-treated cells.

[3] = target: unphosphorylated STAT3 monomer (uSTAT3) SH2 domain (Homo sapiens, UniProt P40763); assay: Fluorescence polarisation assay for the inhibition of STAT3 dimerisation; type: binding; settings: 350 nM uSTAT3, 10 nM FAM-pYLPQTV, 100 μM ligand; average of triplicate
Sequence of unphosphorylated STAT3 monomer (uSTAT3) SH2 domain (P40763 whole entry, the tested form may be a part): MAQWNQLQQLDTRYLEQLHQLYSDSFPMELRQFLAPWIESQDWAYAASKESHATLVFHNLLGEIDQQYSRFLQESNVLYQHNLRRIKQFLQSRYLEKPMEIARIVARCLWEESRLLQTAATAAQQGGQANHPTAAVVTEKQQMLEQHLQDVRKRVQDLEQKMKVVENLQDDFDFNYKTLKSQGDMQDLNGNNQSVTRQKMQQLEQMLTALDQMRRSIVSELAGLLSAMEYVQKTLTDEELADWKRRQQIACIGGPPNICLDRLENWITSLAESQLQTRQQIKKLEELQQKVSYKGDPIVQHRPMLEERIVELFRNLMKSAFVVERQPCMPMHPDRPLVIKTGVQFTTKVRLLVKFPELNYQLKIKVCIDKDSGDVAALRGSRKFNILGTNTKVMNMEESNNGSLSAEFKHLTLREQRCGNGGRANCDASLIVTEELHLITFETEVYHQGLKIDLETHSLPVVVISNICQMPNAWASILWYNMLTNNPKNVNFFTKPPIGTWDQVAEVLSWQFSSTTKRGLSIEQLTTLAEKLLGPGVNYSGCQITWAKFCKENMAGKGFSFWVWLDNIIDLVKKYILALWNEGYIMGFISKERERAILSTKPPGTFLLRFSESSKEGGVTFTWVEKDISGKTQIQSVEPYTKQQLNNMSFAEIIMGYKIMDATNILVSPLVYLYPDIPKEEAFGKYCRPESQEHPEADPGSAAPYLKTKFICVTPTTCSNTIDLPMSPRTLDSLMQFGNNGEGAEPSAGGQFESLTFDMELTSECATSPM
Description: Fluorescence Polarisation Assay for the Inhibition of STAT3 Dimerisation
The compounds were subjected to an in vitro fluorescent polarisation (FP)-based primary PPI binding screen to assess their ability to inhibit STAT3 dimerisation by interacting with the SH2 domain. In this FP assay, the unphosphorylated STAT3 monomer (uSTAT3) and a surrogate peptide FAM-pYLPQTV were used to form a ‘pseudo-dimer’. The assay is based on the concept that the compounds were expected to displace the surrogate peptide from the uSTAT3 resulting in a fluorescent read out.
Specifically, for the FP assay, a black (CORNING™) 96 well plate was thoroughly washed with distilled water and allowed to dry. A 100 nM FAM-pYLPQTV working solution was prepared from 10 μM FAM-pYLPQTV stock solution (in DMSO) using PBS pH 7.4 Buffer. 10 μl FAM-pYLPQTV was added to 350 nM uSTAT3 protein, the final concentration of protein in each well, in 90 μl PBS buffer pH 7.4. The MP value of the surrogate dimer complex was measured using a fluorescent plate reader (Envision™, Perkin Elmer™, USA), which provided the base MP value. The inhibitor solution was then added to the well and the assay plate was placed on a shaker for 5 minutes. The MP value for each well was then measured again. A shift in fluorescent values was observed due to displacement of the fluorescently-labelled surrogate peptide by the inhibitors, and the average inhibition for each inhibitor could be calculated as described below:
Base MP value (X) for each well=MP value of Protein and Probe (350 nm STAT3+10 nM FAM-pYLPQTV)−MP value of free FAM-pYLPQTV
Inhibitor MP value (Y) for each well=MP value of Protein+Probe+Inhibitor (350 nm uSTAT3+10 nM FAM-pYLPQTV+2 μL Inhibitor)−MP value of free FAM-pYLPQTV with 2 μL DMSO
% inhibition by any ligand/peptide=(X−Y)/X*100
For comparison purpose, the % inhibition produced by 100 μM pYLKTKF was considered to be 100%, and the inhibition produced by different ligands was reported as relative to 100 μM pYLKTKF.
% Inhibition produced by 100 μM pYLKTKF=A
% Inhibition produced by 100 μM Ligand=B
Relative inhibition (%)=B/A*100
The experiment was carried out in triplicate, and average values were taken as the measure of PPI inhibition.

[4] = system: MDA-MB-231 breast (STAT3-dependent) cancer cell line; assay: MTT cell viability assay, MDA-MB-231; type: cell-based, human; settings: for Selectivity ratio: STAT3-null A4 versus STAT3-dependent MDA-MB-231
Description: as §1, §2, §3

[5] = General toxicity and weight of treated xenograft mice; type: in vivo
Description: (§4) MDA-MB231 cells were mixed with matrigel (Geltrex, Gibco) before implantation into mice. For tumour generation, 5 million cells in a 50% matrigel mixture were inoculated subcutaneously on both flanks of 8 weeks old SCID Hairless Outbred (SHO) mice purchased from Charles River (Germany). […] The injections were repeated on day 3 and day 5. The sizes of the tumours were regularly measured using a caliper every 2 days. The tumour size of the treated mice was compared with that of the control group (7 untreated mice).
The days of dosing are indicated by vertical dashed lines.

[6] = system: MDA MB 231 tumours; assay: Human tumour xenograft study; type: in vivo, SCID Hairless Outbred (SHO) mice
Procedure: In Vivo Evaluation of Compound 6 in a Human Tumour Xenograft Study
Therefore, it was decided to carry out a preliminary in vivo efficacy study in mice to evaluate the ability of the molecule to reduce the tumour volume in MDA MB 231 tumour bearing mice. The in vivo tumour xenograft study was carried out in SCID Hairless Outbred (SHO) mice, using an intravenous (IV) dosing regimen.
as §4

[7] = system: STAT3; settings: following IL-6 stimulation; cited from earlier work
[8] = system: STAT3; assay: STAT3 dimerization inhibition (unpublished results); settings: applicants' unpublished results
Description: herein designated RH-06, was identified as being a novel small molecule inhibitor.

[9] = system: STAT3 dependent cells; settings: STAT3 dependent cells as compared to STAT3-null cells; cited from earlier work
[10] = MTT, 48 hours exposure (table title)
[11] = 0.5 mg/Kg IV on days 1, 3 and 5
[12] = Homo sapiens, MDA-MB-231, 48 h, MTT, 48 hours exposure (table title)

Row | SMILES | IC50 ([1]; exposure (table title)) [µM] | inhibition at 100 µM [3] [%] | IC50 [4, 12] [µM] | Bcl-2 mRNA expression (RT-PCR) [2] | STAT3 mRNA expression (RT-PCR) [2] | cyclin D1 mRNA expression (RT-PCR) [2] | fascin mRNA expression (RT-PCR) [2] | house-keeping gene GAPDH mRNA expression (RT-PCR) [2] | STAT1 mRNA expression (RT-PCR) [2] | Selectivity ratio [4] | other results
1 | COC(=O)c1ccc(N(C)S(=O)(=O)c2cc(C(=O)NCc3ccc(CN4CCCCC4)cc3)sc2-c2ccc(N3CCN(C)CC3)nc2)cc1 [Compound 3, methyl 4-((N-methyl-2-(6-(4-methylpiperazin-1-yl)pyridin-3-yl)-5-((4-(piperidin-1-ylmethyl)benzyl)carbamoyl)thiophene)-3-sulfonamido)benzoate] | 65.1 | > 50 | – | down-regulated | notable downregulation | down-regulated | down-regulated | without showing any effect | – | – | –
2 | COC(=O)c1ccc(N(C)S(=O)(=O)c2cc(C(=O)NCc3ccc(CN4CCCCC4)cc3)sc2-c2ccc(C(=O)N3CCOCC3)cc2)cc1 [Compound 4, methyl 4-((N-methyl-2-(4-(morpholine-4-carbonyl)phenyl)-5-((4-(piperidin-1-ylmethyl)benzyl)carbamoyl)thiophene)-3-sulfonamido)benzoate] | 77.4 | > 50 | – | more pronounced | notable downregulation | relatively low compared to 3 | relatively low compared to 3 | without showing any effect | did not downregulate | – | –
3 | COC(=O)c1ccc(N(C)S(=O)(=O)c2cc(C(=O)NCc3ccc(CN4CCCCC4)cc3)sc2-c2ccnc(N3CCNCC3)c2)cc1 [Compound 6, methyl 4-((N-methyl-2-(2-(piperazin-1-yl)pyridin-4-yl)-5-((4-(piperidin-1-ylmethyl)benzyl)carbamoyl)thiophene)-3-sulfonamido)benzoate] | 73.2 | > 50 | – | very weak expression | Almost no expression | Almost no expression | Almost no expression | without showing any effect | without showing any effect | – | IC50 (MDA-MB-231) [4, 10]: sub-micromolar; organ changes after sacrifice [5, 11]: no organ changes were observed; signs of toxicity [5, 11]: did not show any signs of toxicity; weight of the treated mice [5, 11]: initially lost some weight post-treatment, but regained the weight after 14 days; survival of treated mice ([5]; SCID Hairless Outbred (SHO), mouse, in vivo): ≥ 21 days; tumour volume compared to the control group ([6]; 0.5 mg/Kg IV (tail vein) on days 1, 3 and 5): significant reduction; also recorded: remained low and near the baseline; tumour volume after dosing was stopped ([6]; after dosing stopped on day 5, 0.5 mg/Kg IV): no significant increase in tumour volume
4 | COC(=O)c1ccc(N(C)S(=O)(=O)c2cc(C(=O)Nc3ccc(OCCN4CCOCC4)cc3)sc2-c2ccc(N3CCCCC3)cc2)cc1 [Compound 10, methyl 4-((N-methyl-5-((4-(2-morpholinoethoxy)phenyl)carbamoyl)-2-(4-(piperidin-1-yl)phenyl)thiophene)-3-sulfonamido)benzoate] | 67.5 | > 50 | – | very strong down-regulation | significantly downregulated | marked | marked | did not show any effect | did not show any effect | – | –
5 | COC(=O)c1ccc(N(C)S(=O)(=O)c2cc(C(=O)NCc3ccc(CN4CCCC4)cc3)sc2Br)cc1 [Compound 37, methyl 4-((2-bromo-N-methyl-5-((4-(pyrrolidin-1-ylmethyl)benzyl)carbamoyl)thiophene)-3-sulfonamido)benzoate] | 55.6 | 30.2 | 5.64 | – | – | – | – | – | – | 9.85 | –
6 | COC(=O)c1ccc(N(C)S(=O)(=O)c2cc(C(=O)Nc3ccc(N4CCN(C(=O)c5cc6ccccc6o5)CC4)cc3)sc2Br)cc1 [Compound 39, methyl 4-((5-((4-(4-(benzofuran-2-carbonyl)piperazin-1-yl)phenyl)carbamoyl)-2-bromo-N-methylthiophene)-3-sulfonamido)benzoate] | – | – | – | – | – | – | – | – | – | – | IC50 ([1]; 48 hours exposure (table title)): 43.2 µM; IC50 [4, 10]: 4.8 µM; % Inhibition [3]: 36.44%

The next lines start with results.

Row | IC50 ([1]; exposure (table title)) [µM] | inhibition at 100 µM [3] [%] | IC50 [4, 12] [µM] | SMILES | Bcl-2 mRNA expression (RT-PCR) [2] | STAT3 mRNA expression (RT-PCR) [2] | cyclin D1 mRNA expression (RT-PCR) [2] | fascin mRNA expression (RT-PCR) [2] | house-keeping gene GAPDH mRNA expression (RT-PCR) [2] | STAT1 mRNA expression (RT-PCR) [2] | Selectivity ratio [4] | other results
7 | 54.1 | 29.2 | 11.6 | COC(=O)c1ccc(N(C)S(=O)(=O)c2cc(C(=O)Nc3cccc(-c4csc(C)n4)c3)sc2Br)cc1 [Compound 38, methyl 4-((2-bromo-N-methyl-5-((3-(2-methylthiazol-4-yl)phenyl)carbamoyl)thiophene)-3-sulfonamido)benzoate] | – | – | – | – | – | – | 4.67 | –
8 | – | 24.2 | – | Cc1ccc(-c2sc(C(=O)NCc3cccs3)cc2S(=O)(=O)N2CCCC2)cc1 [RH-06] | – | – | – | – | – | – | – | phosphorylation of STAT3 [7]: selectively inhibited phosphorylation of STAT3; STAT3 dimerization [8]: inhibits STAT3 dimerization; cytostatic effect [9]: selectively cytostatic
9 | 65.5 | 32.3 | 18.7 | C[C@@H]1CC(=O)c2c(ccc3c2C(=O)c2cccc(O)c2C3=O)C1 [STA-21, reference compound] | – | – | – | – | – | – | 3.5 | –
